Species on record: Rattus norvegicus
Assay: Open TG-GATES - Regimen: Single
Type: toxicity, organism-based, Sprague-Dawley
Parameters: regimen Single, gender Male, age 6 weeks
Settings: in vivo, po, route gavage; for APTT / Bas / Eos / Fbg / Hb / Ht / Lym / MCH / MCHC / MCV / Mono / Neu / Plat / RBC / Ret / WBC: tissue Blood; for KIDNEY_L / KIDNEY_R / KIDNEY_TOTAL: tissue Kidney; for LIVER: tissue Liver; for ALP / ALT / AST / CRE / DBIL / GLC / IP / K / LDH / Na / PL / RALB / TBIL / TC / TG / TP / gamma-GTP: tissue Plasma
[1] = 0 mg/kg, 3 h, dose level Control
[2] = 0 mg/kg, 6 h, dose level Control
[3] = 0 mg/kg, 9 h, dose level Control
[4] = 0 mg/kg, 24 h, dose level Control

CN(C)CCC=C1c2ccccc2COc2ccccc21 [DOXEPIN]
TERMINAL_BW [1]: 197.6 g | APTT [1]: 20.9 s | Bas [1]: 0% | Eos [1]: 0.8% | Fbg [1]: 250.4 mg/dL | Hb [1]: 13.6 g/dL | Ht [1]: 41.4% | Lym [1]: 77.4% | MCH [1]: 21.2 pg | MCHC [1]: 32.9% | MCV [1]: 64.4 fL | Mono [1]: 3.6% | Neu [1]: 17.4% | Plat [1]: 123.1 x10_4/uL | RBC [1]: 644 x10_4/ul | Ret [1]: 8.4% | WBC [1]: 93.1 x10_2/uL | KIDNEY_L [1]: 0.9 g | KIDNEY_R [1]: 0.9 g | KIDNEY_TOTAL [1]: 1.8 g | LIVER [1]: 8.7 g | ALP [1]: 1553 IU/L | ALT [1]: 44 IU/L | AST [1]: 77.8 IU/L | CRE [1]: 0.2 mg/dL | DBIL [1]: 0.006 mg/dL | GLC [1]: 169.4 mg/dL | IP [1]: 8.4 mg/dL | K [1]: 4.2 meq/L | LDH [1]: 84.6 IU/L | Na [1]: 142.4 meq/L | PL [1]: 140.8 mg/dL | RALB [1]: 2.5 g/dL | TBIL [1]: 0.056 mg/dL | TC [1]: 74.8 mg/dL | TG [1]: 58.2 mg/dL | TP [1]: 5.3 g/dL | gamma-GTP [1]: 1.2 IU/L | TERMINAL_BW [2]: 196 g | APTT [2]: 17.7 s | Bas [2]: 0.2% | Eos [2]: 0.8% | Fbg [2]: 265.6 mg/dL | Hb [2]: 13.6 g/dL | Ht [2]: 41.4% | Lym [2]: 79.2% | MCH [2]: 21.8 pg | MCHC [2]: 32.8% | MCV [2]: 66.3 fL | Mono [2]: 3% | Neu [2]: 16.2% | Plat [2]: 112.3 x10_4/uL | RBC [2]: 624.8 x10_4/ul | Ret [2]: 9.3% | WBC [2]: 110.1 x10_2/uL | KIDNEY_L [2]: 0.9 g | KIDNEY_R [2]: 0.9 g | KIDNEY_TOTAL [2]: 1.8 g | LIVER [2]: 8.1 g | ALP [2]: 1565.4 IU/L | ALT [2]: 37.4 IU/L | AST [2]: 77.2 IU/L | CRE [2]: 0.2 mg/dL | DBIL [2]: 0.004 mg/dL | GLC [2]: 158.4 mg/dL | IP [2]: 8.9 mg/dL | K [2]: 4.1 meq/L | LDH [2]: 80.2 IU/L | Na [2]: 142.6 meq/L | PL [2]: 143.6 mg/dL | RALB [2]: 2.4 g/dL | TBIL [2]: 0.06 mg/dL | TC [2]: 76.4 mg/dL | TG [2]: 49.2 mg/dL | TP [2]: 5.3 g/dL | gamma-GTP [2]: 1.2 IU/L | TERMINAL_BW [3]: 195.7 g | APTT [3]: 17.2 s | Bas [3]: 0% | Eos [3]: 1% | Fbg [3]: 271.8 mg/dL | Hb [3]: 13.2 g/dL | Ht [3]: 39.9% | Lym [3]: 77.8% | MCH [3]: 21.5 pg | MCHC [3]: 32.9% | MCV [3]: 65.3 fL | Mono [3]: 2.2% | Neu [3]: 18.6% | Plat [3]: 119.3 x10_4/uL | RBC [3]: 612.4 x10_4/ul | Ret [3]: 8.9% | WBC [3]: 87 x10_2/uL | KIDNEY_L [3]: 0.9 g | KIDNEY_R [3]: 0.9 g | KIDNEY_TOTAL [3]: 1.8 g | LIVER [3]: 7.5 g | ALP [3]: 1472.4 IU/L | ALT [3]: 36.6 IU/L | AST [3]: 71.2 IU/L | CRE [3]: 0.2 mg/dL | DBIL [3]: 0 mg/dL | GLC [3]: 159.2 mg/dL | IP [3]: 9.7 mg/dL | K [3]: 3.9 meq/L | LDH [3]: 95 IU/L | Na [3]: 143 meq/L | PL [3]: 125.8 mg/dL | RALB [3]: 2.4 g/dL | TBIL [3]: 0.058 mg/dL | TC [3]: 70.6 mg/dL | TG [3]: 33.6 mg/dL | TP [3]: 5.3 g/dL | gamma-GTP [3]: 1.2 IU/L | TERMINAL_BW [4]: 214.2 g | APTT [4]: 18.6 s | Bas [4]: 0% | Eos [4]: 1.2% | Fbg [4]: 269 mg/dL | Hb [4]: 13 g/dL | Ht [4]: 38.8% | Lym [4]: 76.4% | MCH [4]: 21.7 pg | MCHC [4]: 33.5% | MCV [4]: 64.8 fL | Mono [4]: 3% | Neu [4]: 19% | Plat [4]: 116.4 x10_4/uL | RBC [4]: 600.2 x10_4/ul | Ret [4]: 8.1% | WBC [4]: 94.8 x10_2/uL | KIDNEY_L [4]: 1 g | KIDNEY_R [4]: 0.9 g | KIDNEY_TOTAL [4]: 1.9 g | ALP [4]: 2073 IU/L | ALT [4]: 37.8 IU/L | AST [4]: 75.6 IU/L | CRE [4]: 0.2 mg/dL | DBIL [4]: 0.004 mg/dL | GLC [4]: 173.2 mg/dL | IP [4]: 7.2 mg/dL | K [4]: 4 meq/L | LDH [4]: 106.6 IU/L | Na [4]: 141.6 meq/L | PL [4]: 153.8 mg/dL | RALB [4]: 2.5 g/dL | TBIL [4]: 0.04 mg/dL | TC [4]: 80.2 mg/dL | TG [4]: 89 mg/dL | TP [4]: 5.6 g/dL | gamma-GTP [4]: 1 IU/L | TERMINAL_BW (100 mg/kg, 3 h, dose level Low): 198.2 g | APTT (100 mg/kg, 3 h, dose level Low): 19.4 s | Bas (100 mg/kg, 3 h, dose level Low): 0% | Eos (100 mg/kg, 3 h, dose level Low): 1% | Fbg (100 mg/kg, 3 h, dose level Low): 282.4 mg/dL | Hb (100 mg/kg, 3 h, dose level Low): 13.1 g/dL | Ht (100 mg/kg, 3 h, dose level Low): 39.8% | Lym (100 mg/kg, 3 h, dose level Low): 79.6% | MCH (100 mg/kg, 3 h, dose level Low): 21.2 pg | MCHC (100 mg/kg, 3 h, dose level Low): 32.9% | MCV (100 mg/kg, 3 h, dose level Low): 64.4 fL | Mono (100 mg/kg, 3 h, dose level Low): 3% | Neu (100 mg/kg, 3 h, dose level Low): 16% | Plat (100 mg/kg, 3 h, dose level Low): 113.2 x10_4/uL | RBC (100 mg/kg, 3 h, dose level Low): 619.4 x10_4/ul | Ret (100 mg/kg, 3 h, dose level Low): 8.6% | WBC (100 mg/kg, 3 h, dose level Low): 80.4 x10_2/uL | KIDNEY_L (100 mg/kg, 3 h, dose level Low): 0.9 g | KIDNEY_R (100 mg/kg, 3 h, dose level Low): 0.9 g | KIDNEY_TOTAL (100 mg/kg, 3 h, dose level Low): 1.8 g | LIVER (100 mg/kg, 3 h, dose level Low): 8.6 g | ALP (100 mg/kg, 3 h, dose level Low): 1626.2 IU/L | ALT (100 mg/kg, 3 h, dose level Low): 39.4 IU/L | AST (100 mg/kg, 3 h, dose level Low): 69.2 IU/L | CRE (100 mg/kg, 3 h, dose level Low): 0.2 mg/dL | DBIL (100 mg/kg, 3 h, dose level Low): 0 mg/dL | GLC (100 mg/kg, 3 h, dose level Low): 182 mg/dL | IP (100 mg/kg, 3 h, dose level Low): 8.9 mg/dL | K (100 mg/kg, 3 h, dose level Low): 4.1 meq/L | LDH (100 mg/kg, 3 h, dose level Low): 82 IU/L | Na (100 mg/kg, 3 h, dose level Low): 143.8 meq/L | PL (100 mg/kg, 3 h, dose level Low): 159.6 mg/dL | RALB (100 mg/kg, 3 h, dose level Low): 2.5 g/dL | TBIL (100 mg/kg, 3 h, dose level Low): 0.046 mg/dL | TC (100 mg/kg, 3 h, dose level Low): 83.8 mg/dL | TG (100 mg/kg, 3 h, dose level Low): 57 mg/dL | TP (100 mg/kg, 3 h, dose level Low): 5.4 g/dL | gamma-GTP (100 mg/kg, 3 h, dose level Low): 1 IU/L | TERMINAL_BW (100 mg/kg, 6 h, dose level Low): 197.6 g | APTT (100 mg/kg, 6 h, dose level Low): 16.2 s | Bas (100 mg/kg, 6 h, dose level Low): 0% | Eos (100 mg/kg, 6 h, dose level Low): 1% | Fbg (100 mg/kg, 6 h, dose level Low): 282.2 mg/dL | Hb (100 mg/kg, 6 h, dose level Low): 13.1 g/dL | Ht (100 mg/kg, 6 h, dose level Low): 40.1% | Lym (100 mg/kg, 6 h, dose level Low): 75.8% | MCH (100 mg/kg, 6 h, dose level Low): 21.7 pg | MCHC (100 mg/kg, 6 h, dose level Low): 32.8% | MCV (100 mg/kg, 6 h, dose level Low): 66.4 fL | Mono (100 mg/kg, 6 h, dose level Low): 2.4% | Neu (100 mg/kg, 6 h, dose level Low): 20.2% | Plat (100 mg/kg, 6 h, dose level Low): 119.3 x10_4/uL | RBC (100 mg/kg, 6 h, dose level Low): 603.6 x10_4/ul | Ret (100 mg/kg, 6 h, dose level Low): 9.7% | WBC (100 mg/kg, 6 h, dose level Low): 94.4 x10_2/uL | KIDNEY_L (100 mg/kg, 6 h, dose level Low): 0.9 g | KIDNEY_R (100 mg/kg, 6 h, dose level Low): 0.9 g | KIDNEY_TOTAL (100 mg/kg, 6 h, dose level Low): 1.8 g | LIVER (100 mg/kg, 6 h, dose level Low): 8.1 g | ALP (100 mg/kg, 6 h, dose level Low): 1532.8 IU/L | ALT (100 mg/kg, 6 h, dose level Low): 37.4 IU/L | AST (100 mg/kg, 6 h, dose level Low): 71.4 IU/L | CRE (100 mg/kg, 6 h, dose level Low): 0.2 mg/dL | DBIL (100 mg/kg, 6 h, dose level Low): 0.004 mg/dL | GLC (100 mg/kg, 6 h, dose level Low): 175.2 mg/dL | IP (100 mg/kg, 6 h, dose level Low): 9.5 mg/dL | K (100 mg/kg, 6 h, dose level Low): 4 meq/L | LDH (100 mg/kg, 6 h, dose level Low): 71.6 IU/L | Na (100 mg/kg, 6 h, dose level Low): 144.6 meq/L | PL (100 mg/kg, 6 h, dose level Low): 140.6 mg/dL | RALB (100 mg/kg, 6 h, dose level Low): 2.5 g/dL | TBIL (100 mg/kg, 6 h, dose level Low): 0.054 mg/dL | TC (100 mg/kg, 6 h, dose level Low): 79.4 mg/dL | TG (100 mg/kg, 6 h, dose level Low): 27.2 mg/dL | TP (100 mg/kg, 6 h, dose level Low): 5.3 g/dL | gamma-GTP (100 mg/kg, 6 h, dose level Low): 1 IU/L

From ChEMBL document CHEMBL3885861, “Open TG-GATES”
